Results published in patent US20250179126A1, “A NOVEL PEPTIDE FROM A PHOTOSYNTHETIC BACERIUM DIRECTLY TARGETS MITOCHONDRIA TO TRIGGER APOPTOSIS IN ADVANCED PROSTATE CANCER CELLS” (priority 2022, published 2025).

Columns and labels:
[1] = tested on: LNCaP prostate cancer cells; experiment: MTT cell viability assay, LNCaP prostate cancer cells; format: cell-based, human; details: LNCaP (p53 wild-type, AR+), 24-72 hr; paclitaxel 1 nM
Procedure: (§1) Cell lines and culture: Human cancer and noncancer (immortalized and nonimmortalized) cell lines were obtained from the American Type Culture Collection [prostate cancer (PC3, DU145 and LNCaP), normal prostate (CRL11611), breast cancer (MCF-7), ovarian cancer (SK-OV3 adenocarcinoma), lung cancer (A549)]. MDD2 breast cancer cells (p53 dominant-negative) were provided courtesy of Dr Andrei V. Gudkov, Roswell Park Cancer Institute. 20 All cell lines were cultured in MEM-E (Invitrogen) supplemented with 10% heat-inactivated fetal bovine serum (Atlanta Biological, Inc.), 100 units/mL penicillin, and 100 μg/mL streptomycin at 37° C. in 5% CO2.

PC3 cells = experiment: Annexin-V apoptosis assay by flow cytometry, PC3; format: cell-based, human; details: PC3, 48 hr; Ptxl 1 nM, p28 50 μM, aurA/aurB 0.5-50 μM
Procedure: (§2) FIG. 7A-7D: Determination of apoptotic cell death. Prostate cancer cell lines (7A: LNCaP, 7B: DU145 and 7C: PC3) and normal prostate CRL11611 cells (7D) were exposed to the indicated agents for 48 hr and stained using apoptosis assay kits according to the manufacturer's instructions. The samples were analyzed by flow cytometry. Mean±SE (N=3).
(§3) After 48 hr, annexin-V apoptosis assays (Thermo Fisher Scientific) were conducted to detect apoptotic cells. At least 10,000 cells in each case were analyzed by FACS (RRC, UIC).

LNCaP cells = experiment: Annexin-V apoptosis assay by flow cytometry, LNCaP; format: cell-based, human; details: 48 hr, Ptxl 1 nM, p28 50 μM, aurA/aurB 0.5-50 μM
Procedure: as §2, §3

DU145 cells = experiment: Annexin-V apoptosis assay by flow cytometry, DU145; format: cell-based, human; details: DU145, 48 hr; Ptxl 1 nM, p28 50 μM, aurA/aurB 0.5-50 μM
Procedure: as §2, §3

[2] = tested on: DU145 prostate cancer cells; experiment: MTT cell viability assay, DU145 prostate cancer cells; format: cell-based, human; details: DU145 (p53-mutant, AR−), 24-72 hr, paclitaxel 1 nM
Source text: Cell viability was detected by MTT assays, and the control (PBS-treated) cells were considered 100% viable. Mean±SE (N=3). *P<0.05, **P<0.01, ***P<0.001.
as §1

[3] = tested on: normal prostate CRL11611 cells; experiment: Annexin-V apoptosis assay by flow cytometry, normal prostate CRL11611; format: cell-based, human; details: normal CRL11611, 48 hr; Ptxl 1 nM, p28 50 μM, aurA/aurB 0.5-50 μM
Procedure: as §2, §3

[4] = tested on: normal prostate cells CRL11611; experiment: MTT cell viability assay, normal prostate CRL11611 cells; format: cell-based, human; details: normal prostate CRL11611 (p53+, AR+), 24-72 hr, paclitaxel 1 nM
Source text: FIG. 4A-4D: Effect of peptides on prostate cancer cell lines with differences in p53 and AR expression status. […] Control (PBS)-treated cells were considered to have 100% viability. Mean±SE (N=3).
as §1
Cytotoxicity assay: The MTT assay was performed as we previously described (Cha et al., Cancer Research 2020, 80: 1615-1623).

PC3 xenograft tumors = experiment: PC3 xenograft animal model; format: in vivo, athymic mice; details: end of treatment, four weeks i.p.; aurB 5 mg/kg daily, Ptxl 10 mg/kg once a week
Source text: FIG. 10A-10D: Inhibition of PC3 xenograft tumor growth. 10A, When the s.c. tumors reached ˜5 mm, athymic mice were randomized into control (PBS) and i.p. treatment groups. Mean±SE (N=5). *P<0.01. […] 10C, At the end of treatment, tumors were dissected and weighed. * P<0.01. 10D, In sections of tumors from the control group, there was a marked increase in Ki-67-positive proliferating cells (stained brown and counterstained with haematoxylin, ×40), and only a few apoptotic cells were observed, as determined by TUNEL and caspase-3 (Casp-3) staining. There was an apparent sharp reduction in Ki-67-positive proliferating cells and a higher number of TUNEL-positive apoptotic cells in the aurB-treated group compared to the control group. Similarly, Casp-3 expression in aurB-treated tumors was increased markedly compared with that in untreated controls.
Xenograft animal model: Human prostate cancer cells (PC3) were injected s.c. into the right flanks of 5- to 6-week-old male athymic mice 78. When tumors reached 5 mm in diameter, animals were randomized into control and treatment groups. […] All animals were weighed twice a week. At necropsy, tumors were dissected and weighed. Statistical comparisons were performed by one-way analysis of variance (ANOVA) (control vs treatment). Tumor samples were fixed overnight in 10% buffered formalin. Fixation was followed by dehydration, clearing and infiltration. Samples were then embedded in paraffin, and 4 μm sections were cut on a microtome. Ki67 (LabVision) staining was performed on the tissue sections using a Vector Vectastain Elite ABC Kit. The TUNEL assay was performed on the sections using a Millipore Sigma ApopTag® Peroxidase In Situ Apoptosis Detection Kit.

[5] = tested on: PC3 prostate cancer cells; experiment: MTT cell viability assay, PC3 prostate cancer cells; format: cell-based, human; details: PC3 (p53-null, AR−), 24-72 hr, paclitaxel 1 nM
Procedure: as §1

Row | Compound | cytotoxic effect (MTT cell viability) [1] | apoptotic cell death (PC3 cells) | apoptotic cell death (LNCaP cells) | apoptotic cell death (DU145 cells) | cytotoxic effect (MTT cell viability) [2] | cytotoxic effect (MTT cell viability) ([2]; listed as Ptxl) | apoptotic cell death [3] | cytotoxic effect (MTT cell viability) [4] | cytotoxic effect (MTT cell viability) ([4]; listed as Ptxl) | tumor growth inhibition vs PBS control (PC3 xenograft tumors) | cytotoxic effect (MTT cell viability) [5] | cytotoxic effect (MTT cell viability) ([5]; listed as Ptxl)
1 | CC(=O)O[C@H]1C(=O)[C@@]2(C)[C@H]([C@H](OC(=O)c3ccccc3)[C@]3(O)C[C@H](OC(=O)[C@H](O)[C@@H](NC(=O)c4ccccc4)c4ccccc4)C(C)=C1C3(C)C)[C@]1(OC(C)=O)CO[C@@H]1C[C@@H]2O [paclitaxel, reference compound] | significantly induced time-dependent cytotoxicity | induced apoptotic cell death | induced apoptotic cell death | induced apoptotic cell death | significantly induced time-dependent cytotoxicity | less susceptible | induced apoptotic cell death | significantly induced time-dependent cytotoxicity | most toxic | 52% | significantly induced time-dependent cytotoxicity | less susceptible
2 | CSCC[C@H](NC(=O)CNC(=O)[C@H](CC(=O)O)NC(=O)[C@@H](NC(=O)[C@@H](NC(=O)[C@@H](NC(=O)CNC(=O)[C@H](CCC(N)=O)NC(=O)[C@H](CCSC)NC(=O)[C@H](CC(=O)O)NC(=O)[C@H](C)NC(=O)[C@H](C)NC(=O)[C@@H](NC(=O)[C@H](CO)NC(=O)[C@@H](N)CC(C)C)[C@@H](C)O)C(C)C)C(C)C)[C@@H](C)O)C(=O)N[C@@H](C)C(=O)N[C@@H](CO)C(=O)NCC(=O)N[C@@H](CC(C)C)C(=O)N[C@@H](CC(=O)O)C(=O)N[C@@H](CCCCN)C(=O)N[C@@H](CC(=O)O)C(=O)N[C@@H](Cc1ccc(O)cc1)C(=O)N[C@@H](CC(C)C)C(=O)N[C@@H](CCCCN)C(=O)N1CCC[C@H]1C(=O)N[C@@H](CC(=O)O)C(=O)N[C@@H](CC(=O)O)C(=O)O [p28, LST AAD MQG VVT DGM ASG LDK DYL KPDD, reference compound] | dose-dependent effect | – | – | – | dose-dependent effect | – | – | but not p53-null PC3 cells or normal CRL11611 cells | – | – | but not p53-null PC3 cells | –
